Read-outs that look alike come from different tables or passages of the source. Blank lines part the entries; values can stand above or below the molecule they belong to.
Legend:
Format in all cases: biochemical
[1] = target: T1, Wild-type GST-GK (Homo sapiens, UniProt P35557); assay: Inhibition of glucokinase activity by NAG and MH, Dixon plots; details: glucose 2, 5 and 8 mM, 50 nM glucokinase
T1 construct: made in house; host or cells: E. coli
T1 sequence (P35557 1-465): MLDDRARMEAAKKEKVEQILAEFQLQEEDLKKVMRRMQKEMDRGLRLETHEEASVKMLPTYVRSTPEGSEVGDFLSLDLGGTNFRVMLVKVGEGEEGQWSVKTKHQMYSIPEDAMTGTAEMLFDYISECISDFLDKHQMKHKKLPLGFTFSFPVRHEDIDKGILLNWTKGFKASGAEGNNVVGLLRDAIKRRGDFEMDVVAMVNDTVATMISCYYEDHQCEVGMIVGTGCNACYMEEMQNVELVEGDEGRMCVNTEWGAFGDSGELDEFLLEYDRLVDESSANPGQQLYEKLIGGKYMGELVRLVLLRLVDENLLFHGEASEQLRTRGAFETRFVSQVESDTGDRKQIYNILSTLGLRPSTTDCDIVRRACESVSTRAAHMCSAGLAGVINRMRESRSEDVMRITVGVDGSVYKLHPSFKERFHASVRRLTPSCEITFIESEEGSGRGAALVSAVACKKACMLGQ
Experimental: (§1) Glucokinase activity was measured spectrophotometrically on a spectrophotometer Uviconxl (Secoman), using an NADP^+-coupled assay with glucose-6-phosphate dehydrogenase, as described previously. The final reaction mixture contained 100 mM Tris pH 7.4, 150 mM KCl, 1 mM MgCl2, 1.4 mM ß-mercaptoethanol, 0.1% BSA, 5 mM ATP-MgCl2, 1 mM NADP^+, and 1 U/ml glucose-6-phosphate dehydrogenase. Determination of kinetic parameters and thermal stability tests were performed as in [20]. […] Inhibition by NAG and MH was determined under standard assay conditions with 50 nM glucokinase. The inhibition by palmitoylCoA was determined in reaction mixtures containing 25 mM Hepes pH 7.1; 25 mM KCl; 1 mM NADP, 1 mM ATP-MgCl2; 2.5 mM MgCl2; 5 mM ß-mercaptoethanol, 1 U/ml glucose-6-phosphate dehydrogenase and 61 nM glucokinase. Due to the low Kcat value of mutant GST-GK(pAla449Thr), the amount of protein used in inhibition assays was 180 nM to get sufficient activity to allow for accurate determination of the inhibitor effect. In these conditions, GK activity (U/mg of GST-GK(pAla449Thr)) in the absence of inhibitors was 1.3±0.08, 1.1±0.06 and 0.9±0.05 at 2, 1.5 and 1 mM of glucose, respectively for NAG and MH assays and 0.5±0.05, 0.33±0.03 and 0.27±0.03 at 2, 1.5 and 1 mM glucose, respectively for palmitoyl-CoA assay.

[2] = target: T2, GST-GK(p.Ala449Thr) (Homo sapiens, UniProt P35557, A449T); assay: as above; details: for IC50: glucose 1, 1.5 and 2 mM, 180 nM protein
T2 construct: made in house; host or cells: E. coli
T2 sequence (P35557 1-465 A449T): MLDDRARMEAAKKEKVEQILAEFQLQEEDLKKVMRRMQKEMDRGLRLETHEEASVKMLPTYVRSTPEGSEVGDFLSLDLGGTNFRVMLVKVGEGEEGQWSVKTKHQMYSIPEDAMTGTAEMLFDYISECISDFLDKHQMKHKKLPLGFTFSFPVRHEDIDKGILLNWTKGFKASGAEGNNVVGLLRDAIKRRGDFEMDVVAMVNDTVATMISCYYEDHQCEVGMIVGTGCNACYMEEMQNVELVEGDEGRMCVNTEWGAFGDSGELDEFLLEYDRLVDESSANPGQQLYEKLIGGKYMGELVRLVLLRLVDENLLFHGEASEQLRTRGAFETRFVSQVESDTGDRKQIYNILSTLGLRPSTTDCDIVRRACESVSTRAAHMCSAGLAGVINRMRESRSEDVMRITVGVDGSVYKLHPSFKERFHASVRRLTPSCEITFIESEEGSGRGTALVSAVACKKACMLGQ
Experimental: as §1

[3] = target: T3, GST-GK(p.Gly223Ser) (Homo sapiens, UniProt P35557, G223S); assay: as above; details: glucose 12.5, 25 and 50 mM
T3 construct: made in house; host or cells: E. coli
T3 sequence (P35557 1-465 G223S): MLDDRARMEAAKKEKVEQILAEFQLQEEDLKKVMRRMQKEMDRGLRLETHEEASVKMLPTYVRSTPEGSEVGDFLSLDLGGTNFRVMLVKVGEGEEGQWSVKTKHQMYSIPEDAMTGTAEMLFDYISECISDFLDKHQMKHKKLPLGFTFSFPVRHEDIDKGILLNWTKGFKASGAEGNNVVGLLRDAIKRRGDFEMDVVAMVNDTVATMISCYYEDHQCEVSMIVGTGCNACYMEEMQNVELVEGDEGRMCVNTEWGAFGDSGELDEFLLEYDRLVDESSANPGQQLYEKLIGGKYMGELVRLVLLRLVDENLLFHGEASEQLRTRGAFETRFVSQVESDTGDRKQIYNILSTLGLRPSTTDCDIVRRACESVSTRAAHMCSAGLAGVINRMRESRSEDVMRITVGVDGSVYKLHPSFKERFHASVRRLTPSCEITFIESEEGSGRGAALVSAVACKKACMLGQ
Experimental: as §1

[4] = target: T1, Wild-type GST-GK; assay: Effect of GK synthetic activator on kinetic parameters
Experimental: as §1
(§2) GK activator LY2121260 was kindly provided by Elli Lilly and Co, Indianapolis, IN, USA. A stock solution of 1 mM LY2121260 was prepared in 12.5 mM Hepes pH 7.4 with 80% DMSO. Results are shown as means ± SEM, and statistical significance was analysed by the two-tailed Student's t-test. P values of <0.05 were considered statistically significant. The structural analysis of mutations was carried out using the crystal structure of human GK [18] and visualized using the Pymol Molecular Graphics System (Schrödinger).

[5] = target: T2, GST-GK(p.Ala449Thr); assay: as above
Experimental: as §1, §2

[6] = tested on: human beta-cell glucokinase; assay: Kinetic analysis of recombinant GST-GK fusion proteins (NADP+-coupled assay with glucose-6-phosphate dehydrogenase); details: for S0.5 for glucose: means ± SEM; for overall activity, % of the wild-type protein: reflected in the relative activity index; for nH (Hill coefficient): unit less
Experimental: The expression and purification of fusion proteins from E. coli was performed as described previously [22]. Fusion proteins were stored at a concentration of about 1 mg/ml at −80°C in 30% glycerol, 50 mM glucose, 10 mM glutathione, 5 mM DTT, 200 mM KCl and 50 mM Tris/HCl pH = 8.0. Protein concentrations were determined using the Bio-Rad Protein Assay (Bio-Rad Laboratories, GmbH), with bovine serum albumin as standard.
Glucokinase activity was measured spectrophotometrically on a spectrophotometer Uviconxl (Secoman), using an NADP^+-coupled assay with glucose-6-phosphate dehydrogenase, as described previously [22]. The final reaction mixture contained 100 mM Tris pH 7.4, 150 mM KCl, 1 mM MgCl2, 1.4 mM ß-mercaptoethanol, 0.1% BSA, 5 mM ATP-MgCl2, 1 mM NADP^+, and 1 U/ml glucose-6-phosphate dehydrogenase. Determination of kinetic parameters and thermal stability tests were performed as in [20].
One unit of GK is defined as the amount of enzyme that phosphorylates 1 µmol of glucose per min at 30°C.

Molecule: O=C(CO)[C@@H](O)[C@@H](O)[C@H](O)[C@H](O)CO [MH, mannoheptulose]
IC50 ([1]; read-out: I50 for MH): 1150 ± 370 µM
IC50 ([2]; read-out: I50 for MH): 670 ± 40 µM
IC50 ([3]; read-out: I50 for MH): 3550 ± 630 µM

Molecule: CS(=O)(=O)c1ccc([C@@]2(C(=O)Nc3nccs3)C[C@H]2C2CCCCC2)cc1 [LY2121260]
Kcat (%) ([4]; 10 µM GK activator, 0.8% DMSO, wild type with buffer = 100): 130.8±3.9 %
increase of Kcat ([4]; 10 µM activator): about 30%
increase of affinity for glucose ([4]; 10 µM activator): about 5 fold
S0.5 for glucose ([5]; 10 µM GK activator, 0.8% DMSO): 3.1 ± 0.3 mM
effect on S0.5 ([5]; 10 µM activator): did not affect

IC50 ([1]; read-out: I50 for NAG): 210 ± 40 µM
IC50 ([2]; read-out: I50 for NAG): 200 ± 60 µM
effect of mutation on inhibition by NAG ([2]; vs wild type): did not affect the inhibition
IC50 ([3]; read-out: I50 for NAG): 380 ± 45 µM
Molecule: CC(=O)N[C@@H]1[C@@H](O)[C@H](O)[C@@H](CO)O[C@H]1O [NAG, N-acetylglucosamine]

B1: GST-GK (p.Ile130Thr): recombinant GST-glucokinase fusion protein with MODY2 mutation p.Ile130Thr (protein, UniProt P35557 1-465, looked up, variant I130T)
Hexokinase-4: MLDDRARMEAAKKEKVEQILAEFQLQEEDLKKVMRRMQKEMDRGLRLETHEEASVKMLPTYVRSTPEGSEVGDFLSLDLGGTNFRVMLVKVGEGEEGQWSVKTKHQMYSIPEDAMTGTAEMLFDYISECTSDFLDKHQMKHKKLPLGFTFSFPVRHEDIDKGILLNWTKGFKASGAEGNNVVGLLRDAIKRRGDFEMDVVAMVNDTVATMISCYYEDHQCEVGMIVGTGCNACYMEEMQNVELVEGDEGRMCVNTEWGAFGDSGELDEFLLEYDRLVDESSANPGQQLYEKLIGGKYMGELVRLVLLRLVDENLLFHGEASEQLRTRGAFETRFVSQVESDTGDRKQIYNILSTLGLRPSTTDCDIVRRACESVSTRAAHMCSAGLAGVINRMRESRSEDVMRITVGVDGSVYKLHPSFKERFHASVRRLTPSCEITFIESEEGSGRGAALVSAVACKKACMLGQ
modifications: N-terminal GST fusion
S0.5 for glucose [6]: 8.59 ± 0.45 mM
overall activity, % of the wild-type protein [6]: lower than 20%
nH (Hill coefficient) [6]: 1.01±0.02

B2: GST-GK (p.Asp205His): recombinant GST-glucokinase fusion protein with MODY2 mutation p.Asp205His (protein, UniProt P35557 1-465, looked up, variant D205H)
Hexokinase-4: MLDDRARMEAAKKEKVEQILAEFQLQEEDLKKVMRRMQKEMDRGLRLETHEEASVKMLPTYVRSTPEGSEVGDFLSLDLGGTNFRVMLVKVGEGEEGQWSVKTKHQMYSIPEDAMTGTAEMLFDYISECISDFLDKHQMKHKKLPLGFTFSFPVRHEDIDKGILLNWTKGFKASGAEGNNVVGLLRDAIKRRGDFEMDVVAMVNHTVATMISCYYEDHQCEVGMIVGTGCNACYMEEMQNVELVEGDEGRMCVNTEWGAFGDSGELDEFLLEYDRLVDESSANPGQQLYEKLIGGKYMGELVRLVLLRLVDENLLFHGEASEQLRTRGAFETRFVSQVESDTGDRKQIYNILSTLGLRPSTTDCDIVRRACESVSTRAAHMCSAGLAGVINRMRESRSEDVMRITVGVDGSVYKLHPSFKERFHASVRRLTPSCEITFIESEEGSGRGAALVSAVACKKACMLGQ
modifications: N-terminal GST fusion
S0.5 for glucose [6]: No activity at all
nH (Hill coefficient) [6]: No activity at all

B3: GST-GK (p.Gly223Ser): recombinant GST-glucokinase fusion protein with MODY2 mutation p.Gly223Ser (protein, UniProt P35557 1-465, looked up, variant G223S)
Hexokinase-4: MLDDRARMEAAKKEKVEQILAEFQLQEEDLKKVMRRMQKEMDRGLRLETHEEASVKMLPTYVRSTPEGSEVGDFLSLDLGGTNFRVMLVKVGEGEEGQWSVKTKHQMYSIPEDAMTGTAEMLFDYISECISDFLDKHQMKHKKLPLGFTFSFPVRHEDIDKGILLNWTKGFKASGAEGNNVVGLLRDAIKRRGDFEMDVVAMVNDTVATMISCYYEDHQCEVSMIVGTGCNACYMEEMQNVELVEGDEGRMCVNTEWGAFGDSGELDEFLLEYDRLVDESSANPGQQLYEKLIGGKYMGELVRLVLLRLVDENLLFHGEASEQLRTRGAFETRFVSQVESDTGDRKQIYNILSTLGLRPSTTDCDIVRRACESVSTRAAHMCSAGLAGVINRMRESRSEDVMRITVGVDGSVYKLHPSFKERFHASVRRLTPSCEITFIESEEGSGRGAALVSAVACKKACMLGQ
modifications: N-terminal GST fusion
S0.5 for glucose [6]: 44.0 ± 3.81 mM
overall activity, % of the wild-type protein [6]: < 10%
nH (Hill coefficient) [6]: 1.13±0.01
